Here are results for 21 molecules from US11981752B2, “Tumor associated monocyte/macrophage binding peptide and methods of use thereof” (Sanford Burnham Prebys Medical Discovery Institute, priority 2017, dated 2024).

The target of data set [1] is PI3Kγ (Homo sapiens, UniProt P48736). As to conditions: cited from earlier work.
In data set [2] the test system is other kinases (named per endpoint). As to conditions: cited from earlier work.
Data set [3] deals with ATR (Homo sapiens, UniProt Q13535). As to conditions: cited from earlier work.
For data set [4], the target named is PI3Kδ (Homo sapiens, UniProt O00329). As to conditions: cited from earlier work.
Chain of PI3Kδ (O00329 whole entry, species assumed): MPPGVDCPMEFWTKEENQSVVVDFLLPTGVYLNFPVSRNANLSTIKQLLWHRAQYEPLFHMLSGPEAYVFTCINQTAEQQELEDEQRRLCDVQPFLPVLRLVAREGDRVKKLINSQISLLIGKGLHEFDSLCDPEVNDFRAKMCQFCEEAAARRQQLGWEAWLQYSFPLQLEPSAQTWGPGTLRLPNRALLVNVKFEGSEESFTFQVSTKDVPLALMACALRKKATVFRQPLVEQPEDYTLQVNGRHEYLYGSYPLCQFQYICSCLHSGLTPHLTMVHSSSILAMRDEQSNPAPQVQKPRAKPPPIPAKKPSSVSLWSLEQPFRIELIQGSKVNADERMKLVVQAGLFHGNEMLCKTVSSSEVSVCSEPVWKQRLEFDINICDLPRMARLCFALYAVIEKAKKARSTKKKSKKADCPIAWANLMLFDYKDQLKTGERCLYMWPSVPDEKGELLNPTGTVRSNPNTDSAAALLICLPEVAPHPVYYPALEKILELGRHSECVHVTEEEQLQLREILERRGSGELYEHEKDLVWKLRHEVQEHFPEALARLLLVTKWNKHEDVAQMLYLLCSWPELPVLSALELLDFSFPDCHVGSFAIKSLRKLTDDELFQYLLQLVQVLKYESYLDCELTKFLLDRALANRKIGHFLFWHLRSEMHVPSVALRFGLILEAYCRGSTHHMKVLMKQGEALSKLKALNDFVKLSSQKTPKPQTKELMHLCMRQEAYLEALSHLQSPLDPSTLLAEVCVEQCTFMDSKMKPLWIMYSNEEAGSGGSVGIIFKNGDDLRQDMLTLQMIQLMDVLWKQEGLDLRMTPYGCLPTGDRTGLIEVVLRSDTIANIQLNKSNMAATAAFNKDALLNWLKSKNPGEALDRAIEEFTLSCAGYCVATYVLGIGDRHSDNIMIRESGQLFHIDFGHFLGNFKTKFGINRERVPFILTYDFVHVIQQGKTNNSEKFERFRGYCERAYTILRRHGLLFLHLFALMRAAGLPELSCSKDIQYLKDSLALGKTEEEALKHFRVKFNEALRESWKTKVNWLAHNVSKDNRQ
Chain of PI3Kδ (P27986 whole entry partner, species assumed): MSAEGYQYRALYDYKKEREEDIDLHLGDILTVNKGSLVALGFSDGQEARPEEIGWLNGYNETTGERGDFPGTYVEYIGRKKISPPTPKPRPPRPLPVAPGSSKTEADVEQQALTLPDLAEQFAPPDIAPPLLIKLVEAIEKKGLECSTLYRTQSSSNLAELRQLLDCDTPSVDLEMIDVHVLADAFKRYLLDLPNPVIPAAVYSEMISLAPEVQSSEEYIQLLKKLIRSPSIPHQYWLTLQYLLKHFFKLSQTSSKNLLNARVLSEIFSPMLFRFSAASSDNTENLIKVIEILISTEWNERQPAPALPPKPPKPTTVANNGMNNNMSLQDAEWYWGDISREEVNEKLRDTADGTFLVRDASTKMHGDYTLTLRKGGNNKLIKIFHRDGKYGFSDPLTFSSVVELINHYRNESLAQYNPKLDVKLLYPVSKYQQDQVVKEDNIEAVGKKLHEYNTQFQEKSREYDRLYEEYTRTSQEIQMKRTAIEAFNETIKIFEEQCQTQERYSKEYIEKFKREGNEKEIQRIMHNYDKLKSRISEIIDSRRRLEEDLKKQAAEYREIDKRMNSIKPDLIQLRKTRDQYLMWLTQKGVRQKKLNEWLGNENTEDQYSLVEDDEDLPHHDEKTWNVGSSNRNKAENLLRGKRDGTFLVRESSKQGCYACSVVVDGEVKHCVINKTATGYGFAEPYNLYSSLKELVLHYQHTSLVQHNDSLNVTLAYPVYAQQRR
Data set [5] has as its target DNA-PK (Homo sapiens, UniProt P78527). As to conditions: cited from earlier work.
Data set [6] addresses PI3Kβ (Homo sapiens, UniProt P42338). As to conditions: cited from earlier work.
Data set [7] deals with mTOR (Homo sapiens, UniProt P42345). As to conditions: cited from earlier work.
In data set [8] the test system is class I PI3K isoforms. As to conditions: cited from earlier work.
The test system of data set [9] is macrophages in atherosclerosis plaques. As to conditions: ApoE null mice fed high fat diet (She et al. 2016); cited from earlier work.
The subject of data set [10] is tumor. As to conditions: systemic treatment of mice; cited from earlier work.
Data set [11] relates to atherosclerotic plaque. As to conditions: systemic treatment of mice; cited from earlier work.
For data set [12], the system named is cells isolated from 4T1 tumors. Description: Ex vivo binding of FAM-CRV to cells isolated from 4T1 tumors. In kind it is cell-based, mice. As to conditions: FAM-CRV 10 μM, 1-hour at 4° C., flow cytometry. On the procedure: To determine the identity of the cells that FAM-CRV localized in within the tumors, ex vivo binding of FAM-CRV to cells isolated from tumors was studied. Tumors were excised from mice bearing 4T1 breast cancer and dissociated into single cell populations using MACS dissociation kit according to the manufacturer's instructions. FAM-CRV was added to a final concentration of 10 μM into a solution of DMEM+1% BSA containing 2 million tumor cells. After 1-hour incubation at 4° C., cells were stained with various immune cell markers. The markers tested include: CD11b (pan-monocyte/macrophage marker), Ly6-G (granulocytic monocyte), CCR2 (infiltrating monocytes), F4/80, CD4 (helper T cells), CD8 (cytotoxic T cells). Cells were stained for the indicated markers and subjected to flow cytometry analysis. The analysis was performed using antibodies to the indicated macrophage markers on CRV-positive cells.

Data set [13] relates to macrophages in atherosclerosis plaques. Description: In vivo homing to atherosclerosis plaques. Also noted: species or system mice. As to conditions: 200 μg FAM-labeled peptide intravenously, 1 hour of circulation. On the procedure:
(§1) To produce 4T1 tumors, 1×10^6 4 T1 cells (ATCC) suspended in 100 μl of PBS were injected into the mammary fat pad of wild type Balb/c female mice. C57BL/6 mice bearing atherosclerosis plaques were generated as previously described (She et al., Journal of Controlled Release 238:212-20 (2016)). Animal experimentation was performed according to the procedures approved by the Animal Research Committee at the Sanford-Burnham Medical Research Institute.
(§2) Orthotopic 4T1 tumors were used when they reached 0.5-1 cm in size. For tumor or plaque homing, 200 μg FAM-labeled peptide dissolved in 100 μl PBS was injected intravenously into mice. After 1 hour of circulation, the mice were euthanized by cardiac perfusion with PBS under anesthesia, and tumors and other organs (or plaques on the aorta) were dissected and analyzed for peptide homing.
Therefore, whether CRV also binds to macrophages in this model was investigated. 200 μg FAM-labeled peptide or control peptide ARA, each dissolved in 100 μl PBS, was injected intravenously into mice. After 1 hour of circulation, the mice were euthanized by cardiac perfusion with PBS under anesthesia, and tumors and other organs (or plaques on the aorta) were dissected and imaged with illuminator for FAM signal.

Data set [14] deals with macrophages in sites of infection. Nature of the data set: Targeting of macrophages in sites of infection. In kind it is in vivo. As to conditions: microbial, viral, or bacterial infection; no method given.
The subject of data set [15] is Raw264.7 cells. Nature of the data set: In vitro peptide binding, flow cytometry, Raw264.7. In kind it is cell-based. As to conditions: FAM-labeled peptide 10 μM, 1 h at 4° C., controls ARA, GGSGGSKG
How it is done:
(§3) J774A.1 and RAW264.7 cells were obtained from ATCC. Cells were maintained in Dulbecco's Modified Eagle Medium supplemented with 10% fetal bovine serum, 1% Glutamine-Pen-Strep and […].
(§4) Cells were incubated on a rotator with peptides added at a final concentration of 10 μM in DMEM plus 1% BSA. For inhibition studies, biotin-CRV was added to a final concentration of 500 μM together with FAM-CRV (10 μM final). After 1 h at 4° C., cells were washed 3 times with PBS followed by flow cytometry analysis.
(§5) The peptide corresponding to the sequence of the top clone: […] (referred to as CRV herein; SEQ ID NO:1) was then synthesized. A green carboxy-fluorescein label (FAM) was added to the N-terminus of CRV to aid detection. CRV binding to two macrophage cell lines, J774A.1 and Raw264.7 was tested. Control peptides used were ARA ([…]; SEQ ID NO:8) and […] (SEQ ID NO:9).
(In general: Flow cytometry measures light scatter and fluorescence of single cells or particles in a stream.)

For data set [16], the system named is J774A.1 cells. Nature of the data set: In vitro peptide binding, flow cytometry, J774A.1. In kind it is cell-based, mouse. On the procedure:
as §3, §4, §5

The test system of data set [17] is 4T1 breast tumors. Description: In vivo peptide homing in mice bearing orthotopic 4T1 breast tumors. As to conditions: 1 hour. How it is done: as §1, §2
In vivo tissue distribution of CRV peptide in tumor mice was investigated. FAM-CRV was injected intravenously into mice bearing 4T1 breast tumors. After 1 hour, perfusion through the heart was performed to eliminate any circulating peptide. Heart, lung, liver, kidney, spleen, and tumor were excised and the FAM-CRV signal was imaged with an illuminator.
CRV homing in tumor mice was investigated. Mice with orthotopic 4T1 breast tumors (n=2) were intravenously injected with 100 μg of CRV peptide labeled with a green fluorophor (FAM). The peptide was allowed to circulate for 1 hour, and the mice were perfused through the left ventricle of the heart to eliminate any peptide remaining in the blood. Major organs were excised and examined under visible and fluorescent light.

Data set [18] concerns J774A.1 cells. Nature of the data set: Phage display screening (CX7C T7 library) on J774A.1 cells. As to conditions: high throughput sequencing of phage clones bound to J774A.1 cells after three rounds of enrichment; terminal cysteines omitted.

“Also recorded” adds a separate entry of the source. Like-named read-outs stand apart in the source and are kept apart here. Bridge positions count the residues as written; N and C are the ends. Ends that are not written are not given here.

Chain of PI3Kγ (P48736 whole entry, species assumed): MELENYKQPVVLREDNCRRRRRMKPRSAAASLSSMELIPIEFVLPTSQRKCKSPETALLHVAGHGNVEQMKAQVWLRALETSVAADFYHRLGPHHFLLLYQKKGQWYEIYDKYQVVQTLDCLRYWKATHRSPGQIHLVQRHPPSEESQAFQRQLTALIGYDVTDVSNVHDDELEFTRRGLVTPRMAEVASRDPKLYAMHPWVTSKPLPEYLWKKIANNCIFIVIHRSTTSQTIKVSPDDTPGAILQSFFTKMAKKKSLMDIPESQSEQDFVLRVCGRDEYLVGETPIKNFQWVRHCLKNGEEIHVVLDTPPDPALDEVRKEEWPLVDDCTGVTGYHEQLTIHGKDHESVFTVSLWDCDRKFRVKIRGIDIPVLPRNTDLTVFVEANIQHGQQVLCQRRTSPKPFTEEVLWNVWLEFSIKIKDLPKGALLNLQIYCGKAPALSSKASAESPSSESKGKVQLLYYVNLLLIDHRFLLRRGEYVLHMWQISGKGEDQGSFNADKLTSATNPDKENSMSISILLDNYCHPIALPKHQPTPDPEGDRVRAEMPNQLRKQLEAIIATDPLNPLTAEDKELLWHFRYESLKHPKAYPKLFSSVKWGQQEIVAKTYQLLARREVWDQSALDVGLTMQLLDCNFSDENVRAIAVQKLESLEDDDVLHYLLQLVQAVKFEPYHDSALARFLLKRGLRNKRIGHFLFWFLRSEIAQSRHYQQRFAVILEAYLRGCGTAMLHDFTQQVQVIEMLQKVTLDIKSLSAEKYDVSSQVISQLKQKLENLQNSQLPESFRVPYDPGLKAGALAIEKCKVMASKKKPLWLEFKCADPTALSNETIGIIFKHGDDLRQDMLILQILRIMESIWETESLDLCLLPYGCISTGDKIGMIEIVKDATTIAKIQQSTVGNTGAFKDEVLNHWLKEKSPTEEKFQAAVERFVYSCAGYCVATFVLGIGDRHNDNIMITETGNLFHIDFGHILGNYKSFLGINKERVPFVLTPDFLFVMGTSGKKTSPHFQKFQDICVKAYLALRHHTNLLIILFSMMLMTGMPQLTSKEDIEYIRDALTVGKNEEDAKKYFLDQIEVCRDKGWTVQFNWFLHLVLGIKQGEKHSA
Chain of PI3Kβ (P42338 whole entry, species assumed): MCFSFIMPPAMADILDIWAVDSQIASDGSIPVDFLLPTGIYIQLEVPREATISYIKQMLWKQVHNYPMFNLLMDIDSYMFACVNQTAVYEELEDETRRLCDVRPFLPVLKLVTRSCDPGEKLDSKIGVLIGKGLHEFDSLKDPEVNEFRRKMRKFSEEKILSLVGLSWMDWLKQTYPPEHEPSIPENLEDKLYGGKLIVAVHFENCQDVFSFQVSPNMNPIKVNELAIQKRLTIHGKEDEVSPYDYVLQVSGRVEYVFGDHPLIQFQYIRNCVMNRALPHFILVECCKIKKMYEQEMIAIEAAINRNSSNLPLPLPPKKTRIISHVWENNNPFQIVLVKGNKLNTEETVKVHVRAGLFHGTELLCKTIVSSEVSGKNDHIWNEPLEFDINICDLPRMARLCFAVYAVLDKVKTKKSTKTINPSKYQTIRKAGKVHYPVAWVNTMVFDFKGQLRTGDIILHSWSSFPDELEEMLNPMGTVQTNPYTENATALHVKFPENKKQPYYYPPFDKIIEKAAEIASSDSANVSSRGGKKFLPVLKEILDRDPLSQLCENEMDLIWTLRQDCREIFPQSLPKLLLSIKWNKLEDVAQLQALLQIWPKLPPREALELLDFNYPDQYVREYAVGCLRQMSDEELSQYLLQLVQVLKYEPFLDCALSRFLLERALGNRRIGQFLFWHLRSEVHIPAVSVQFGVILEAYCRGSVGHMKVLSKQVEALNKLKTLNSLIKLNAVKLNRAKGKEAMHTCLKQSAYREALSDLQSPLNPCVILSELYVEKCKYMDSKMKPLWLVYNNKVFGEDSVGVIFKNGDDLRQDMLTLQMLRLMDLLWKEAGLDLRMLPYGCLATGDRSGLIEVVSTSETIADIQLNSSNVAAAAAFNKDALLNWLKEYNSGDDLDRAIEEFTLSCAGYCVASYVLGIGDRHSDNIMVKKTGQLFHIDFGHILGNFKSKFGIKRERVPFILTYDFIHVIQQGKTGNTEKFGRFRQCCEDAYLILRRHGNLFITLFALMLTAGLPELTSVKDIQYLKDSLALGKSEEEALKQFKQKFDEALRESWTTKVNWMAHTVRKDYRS
Chain of PI3Kβ (P27986 whole entry partner, species assumed): as the sequence (P27986 whole entry partner, species assumed) above

For the molecule `O=C1NC(=O)C(=Cc2ccc(-c3ccc(F)cc3)o2)S1` (stereo in doubt) [CAY10505], the IC50 in [1] is 33 nM.

Take `Cn1c(=O)n(-c2ccc(C(C)(C)C#N)cc2)c2c3cc(-c4cnc5ccccc5c4)ccc3ncc21` [BEZ235, Dactolisib]: the “inhibition of Akt and PDK1” value in data set [2] is “be a poor inhibitor to Akt and PDK1. Phase 2”. The IC50 in data set [3] is 21 nM. As for `COc1ccc(-c2cc3c(C)nc(N)nc3n([C@H]3CC[C@H](OCCO)CC3)c2=O)cn1` [PF-04691502], the “activity against Vps34, AKT, PDK1, p7056K, MEK, ERK, p38, or JNK” value in data set [2] was “nM, little activity against either Vps34, AKT,”.

On to `Fc1ccc2[nH]ccc2c1-c1nc(N2CCOCC2)c2sc(CN3CCN(CC4CC4)CC3)cc2n1` [PI-3065], for which, in [4], the selectivity ratio is above 70. Turning to `Cc1ccc([N+](=O)[O-])cc1S(=O)(=O)N(C)/N=C/c1cnc2ccc(Br)cn12` [PIK-75], the IC50 is 2 nM in data set [5] and 76 nM in data set [1]. With `Cc1ccccc1-n1c(Cn2ncc3c(N)ncnc32)nc2cccc(C)c2c1=O` [PIK-293], the IC50 in data set [4] is 240 nM; in [1] it was 10000 nM. Consider `CCn1nnc2c(N3CCOCC3)nc(-c3ccc(NC(=O)Nc4ccc(C(=O)N5CCN(C)CC5)cc4)cc3)nc21` [PKI-402], for which the IC50 in [6] is 7 nM; in [7] it was 3 nM.

Turning to `O=c1c(O)c(-c2ccc(O)c(O)c2)oc2cc(O)cc(O)c12` [Quercetin], the IC50 in data set [8] (isoform not stated, read-out: PI3K IC50) is 2400 to 5400 nM.

As to `CCn1c(=O)c(-c2cc[nH]n2)cc2c(C)nc(N)nc21` [SAR245409], the “inhibition of DNA-PK and mTOR” value in data set [2] is “also inhibits DNA-PK and mTOR. Phase 1/2”. Consider `FC(F)c1nc2ccccc2n1-c1nc(N2CCOCC2)nc(N2CCOCC2)n1` [ZSTK474], for which the IC50 in data set [8] (read-out: IC50 for PI3K isoforms stated together (PI3Kα/β/δ/γ; class I PI3K isoforms)) was 37 nM. For “CGNKRTRGC (also: cyclic, kind and places not given here) [LyP-1, receptor is cell surface protein p32]”, the “homing to / recognition of macrophages in atherosclerosis plaques” value in [9] is “homes to macrophages residing in atherosclerosis plaques; also recorded: recognizes macrophages both in tumors and atherosclerotic plaques”. In addition, the tumor growth result in data set [10] is “slows down tumor growth”. In data set [11], the atherosclerotic plaque entry was “reduces atherosclerotic plaque”. In the case of “CRVLRSGSC (disulfide 1-9 (inferred); also: FAM or biotin label) [TAM-homing peptide; tested with N-terminal FAM label (FAM-CRV) or biotin label (biotin-CRV)]”, in [12], the “binding to different subtypes of CD11b+ cells (CD11b+Ly-6G+ vs. CD11b+Ly-6G-)” value is listed as “binds equally well” and the “share of CRV-positive cells that are CD11b+ cells” value is reported as around 80%. The “homing to atherosclerosis plaques” value in data set [13] is on record as “does not home to plaques; also recorded: recognizes macrophages in tumors but not in atherosclerotic plaques”. Further, in data set [14], the “ability of the host to clear the infection” value was “markedly increased ability of the host to clear the infection”. Further, the “binding to Raw264.7 cells versus control peptides” value in data set [15] is on record as “higher binding”. In addition, the “binding to J774A.1 cells versus control peptides” value in data set [16] (FAM-labeled peptide 10 μM, 1 h at 4° C., flow cytometry, controls ARA, GGSGGSKG) was “higher binding”. For the same molecule, the “effect of excess biotin-labeled CRV on binding of FAM-CRV to J774A.1 cells” value in [16] (biotin-CRV 500 μM (50-fold excess), FAM-CRV 10 μM) is “inhibited the binding”. In addition, the “localization in tumor sections (fluorescence microscopy)” value in [17] (100 μg FAM-labeled peptide intravenously) is “lack of co-localization of CRV with the blood vessel marker CD31; also recorded: entered into the extravascular compartment of the tumor; also recorded: Partial co-localization of CRV with the macrophage marker F4/80; also recorded: localizes in a CD45 leukocyte-rich tumor area; also recorded: co-localizes with macrophages having the macrophage markers F4/80 and with lymphatic vessels in tumors”. Further, in [17] (100 μg intravenously, perfusion, n=2), the “organ fluorescence after injection of FAM-labeled peptide” value is given as “tumors were positive for peptide fluorescence; also recorded: Some fluorescence was seen in one lung; also recorded: kidneys were positive; also recorded: preferentially homes to tumors”. Besides, in [17] (FAM-CRV intravenously, perfusion, heart, lung, liver, kidney, spleen, tumor), the “in vivo tissue distribution (FAM signal of excised organs)” value was “mainly found in the tumors and the kidneys, with trace amounts or none in the liver, spleen, lungs and heart”.

GGASIT yielded a Count in data set [18] of 8677.

On to GGRVLRS, for which the Count in data set [18] is reported as 62028. Same read-out and setting: as for GRLLRSG, the figure is 9124; as for GRMLRSG, 8922. GRVLRSS: in [18], the Count came out at 6774.

Molecule RSGLRSS registered a Count in data set [18] of 9519.

RVLRSGS returned a Count in data set [18] of 63428.

Turning to SVAYD, in data set [18], the Count came to 10187.

In turn, SVGRSMRS yielded a Count in data set [18] of 7916.
